We go through 3 compounds from patent publication US20250282723A1, “AMYLOID TARGETING AGENTS AND METHODS OF USING THE SAME” (The Regents of the University of California, priority 2021, published 2025).

Series [1] concerns the target T1, aggregated αS (Homo sapiens, UniProt P37840).
T1 construct: made in house; host or cells: E. coli BL21 (plasmid pET5α aSynWT)
Put plainly: Fluorescence emission and fluorescence enhancement of probes bound versus unbound to aggregated αS. Particulars: probes of FIG. 14; for Emmax (with αS) / FI with αS: aggregated αS 5 μM, probe 4 μM; for Emmax (with αS): 5% DMSO in nanopure water; for FI with αS: fold increase of fluorescence, bound vs unbound; for FI αS/Aβ: selectivity of fluorescence response to αS fibrils over Aβ fibrils. Type of series: binding. On the procedure: (§1) Expression and purification of recombinant α-synuclein was followed as reported previously.^32 Briefly, α-synuclein was purified from BL21 E. coli as described: A starter culture of transformed bacteria (pET5α aSynWT) (LB broth with ampicillin [final concentration: 100 μg/mL]) was incubated overnight. Following incubation, 25 mL of the started culture was added to a 500 mL mixture of LB broth and ampicillin. Protein expression was induced by addition of IPTG [0.119 g/500 mL] when an OD600 between 0.5-0.8 was achieved. After 4 h, flasks were centrifuged (5,000×g for 20 min) and the supernatant was removed. The pellets were then re-suspended in 20 mM Tris, 25 mM NaCl, 1 mM EDTA, pH 8.0, transferred into a flask, boiled for 1-2 minutes in a microwave, and boiled in a water bath (90° C.) for 30 minutes. Samples were then centrifuged (18,000×g for 30 min) and the supernatant was collected and filtered through a 0.2 μm filter. α-synuclein protein was further purified using 2×5 ml HiTrapQ HP anion exchange columns (GE, #17-1153-01) followed by Size Exclusion Column (Superdex 200, #28-9893-35). Pure α-synuclein determined by Coomassie and western blot were lyophilized and stored at −80° C. until use.
(§2) Aggregation of purified α-synuclein was followed as reported previously.^33 The lyophilized powder was dissolved to a final concentration of 100 μM in sodium phosphate buffer (50 mM, pH 7.4) with 0.1 mM EDTA and 0.02% sodium azide (w/v) and was aggregated at 37° C. with shaking at 500 rpm for 3 weeks. Fibrillization was confirmed by SDS-PAGE gel and standard ThT assay.
(§3) Aggregated αS or Aβ(1-42) at a final concentration of 5 μM (based on the molecular weight of monomer) was mixed with each fluorescent probe at a final concentration of 4 μM in 5% DMSO in nanopure water. The solution (80 μL total volume) was transferred to a black opaque 96 well plate and the fluorescence excitation and emission were read using a microplate reader. For emission fluorescence enhancement, the relative fluorescence enhancement of the bound versus unbound state was estimated by comparing the fluorescence intensity at λmax of the amyloid-bound state.

Series [2] concerns the target T2, aggregated Aβ (1-42) peptides (Homo sapiens, UniProt P05067).
T2 construct: Synthetic Aβ (1-42) peptide was purchased from Biopeptide, Co LLC; purchased Biopeptide, Co LLC (San Diego, California); host or cells: chemical synthesis
Kind of series: Estimation of binding constant (KD) to aggregated Aβ (1-42) peptides. The note with it: aggregated Aβ(1-42) 5 μM, increasing concentration of probe, 5% DMSO in nanopure water. On the procedure: (§4) Preparation of aggregated Aβ (1-42) peptides. Synthetic Aβ (1-42) peptide was purchased from Biopeptide, Co LLC (San Diego, California). Aggregated Aβ (1-42) was prepared as previously described.^26 Briefly, Aβ (1-42) was dissolved in 100% 1,1,1,3,3,3,-hexafluoro-2-propanol (HFIP) to a concentration of 1 mM and put on a shaker at room temperature (RT) for 24 hours. The solution was then diluted in cold nanopure water (2:1 H2O: HFIP). Aliquoted fractions were lyophilized for 3 days before dissolving in nanopure water to a concentration of 100 μM. Aggregated Aβ solutions were incubated and shaken at 37° C. for 3 days before use. The formation of soluble aggregates (67% fibrils as a mixture with 13% oligomers and 20% monomer) was confirmed using a standard thioflavin T (ThT) assay and by Sodium Dodecyl Sulphate-Polyacrylamide Gel Electrophoresis (SDS-PAGE) gel analysis (FIG. 11 and FIG. 12).
Estimation of Binding Constant (KD) to aggregated Aβ (1-42) peptides. Aggregated Aβ(1-42) at a final concentration of 5 μM (based on the molecular weight of monomer) was mixed with increasing concentration of each probe in 5% DMSO in nanopure water. KD's were determined as previously described.^21
(§5) Synthetic Aβ (1-42) peptide was purchased from Biopeptide, Co LLC (San Diego, California). Aggregated Aβ (1-42) was prepared as previously described.^32 Briefly, monomeric Aβ (1-42) was dissolved in 100% 1,1,1,3,3,3,-hexafluoro-2-propanol (HFIP) to a final concentration of 1 mM and dissolved on a shaker at RT for 24 hours. This solution was then diluted with cold nanopure water (2:1 H2O:HFIP) and aliquoted into fractions. These samples were then lyophilized for 3 days before dissolving in nanopure water to a final concentration of 100 μM. AD solutions were aggregated by incubating and shaking at 37° C. for 3 days before use. The formation of soluble aggregates was confirmed using a standard Thioflavin T (ThT) assay and by SDS-PAGE gel analysis.^1
(§6) Aggregated Aβ(1-42) or αS at a final concentration of 5 μM (based on the molecular weight of the monomer) was mixed with an increasing concentration of each probe in 5% DMSO in nanopure water. Kd's were calculated as previously described.^34 The measurements for each probe were repeated in technical triplicates and the averages are shown with standard deviations. Kd's for probes 1-3 with aggregated Aβ(1-42) have been reported previously.^31

Series [3] in a line: Fluorescence excitation and emission spectra of free (unbound) probes in aqueous solution. Particulars: for Em (λmax) (Free) / Ex (λmax) (Free): free probe in aqueous solution; for Emmax (Free): probes of FIG. 14, free; for fluorescence intensity of the free probe in aqueous solution compared to ARCAM (1): free probes in aqueous solution, FIG. 2. In kind it is physicochemical. On the procedure: (§7) Estimation of fluorescence enhancement of probes when bound versus unbound to aggregated Aβ (1-42) peptides. Aggregated Aβ (1-42) at a final concentration of 5 μM (based on the molecular weight of monomer) was mixed with each fluorescent probe at a final concentration of 4 μM in 5% DMSO in nanopure water. The solution (80 μL) was transferred to a black opaque 96 well plate and the fluorescence was read using a microplate reader. For all probes, the relative fluorescence enhancement of the bound versus unbound state was estimated by comparing the intensity at λmax of the amyloid-bound state.
as §3

Series [4] addresses T2, aggregated Aβ (1-42) peptides. Kind of series: Fluorescence excitation/emission and fluorescence enhancement of probes bound versus unbound to aggregated Aβ (1-42) peptides. Type of series: binding. The note with it: probe 4 μM; for Em (λmax) (with Aβ) / Ex (λmax) (with Aβ): aggregated Aβ (1-42) 5 μM; for Em (λmax) (with Aβ) / Ex (λmax) (with Aβ) / Fold Increase with Aβ / Emmax (with Aβ): 5% DMSO in nanopure water; for Fold Increase with Aβ: fluorescence intensity with aggregated Aβ (1-42) 5 μM vs probe alone, at λmax of the amyloid-bound state; for Emmax (with Aβ) / FI with Aβ: probes of FIG. 14, aggregated Aβ(1-42) 5 μM; for FI with Aβ: fold increase of fluorescence, bound vs unbound. The procedure:
as §4, §7, §5, §3

Series [5] has as its target T1, aggregated αS. Kind of series: Estimation of binding constant (Kd) to aggregated αS. The note with it: probes of FIG. 14; aggregated αS 5 μM, increasing concentration of probe, 5% DMSO in nanopure water. On the procedure:
as §1, §2, §6

Each structure is given as a SMILES string. Several values for one entry are separate records, joined by “and”; a condition that tells them apart may be missing. Equal values may be shown once.

T2 sequence (P05067 672-713): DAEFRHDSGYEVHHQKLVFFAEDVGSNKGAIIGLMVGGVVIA

What is called Kd is the concentration at which binding is half-saturated. As to `COCCOCCOCCNC(=O)C(C#N)=Cc1ccc2cc(N3CCCCC3)ccc2c1` (mixture of isomers) [Compound 1], at aggregated αS [1], the “Emmax (with αS)” value is given as 539 nm, the “FI with αS” value was 3.0 ± 0.5 and the “FI αS/Aβ” value came out at 1.4. Also, the Kd in series [2] was 6.3 ± 0.7 µM. In series [3], the “Em (λmax) (Free)” value turned out to be 590 ± 4 nm, the “Ex (λmax) (Free)” value is on record as 409 ± 11 nm and the “Emmax (Free)” value turned out to be 590 nm. In addition, in series [4], the “Em (λmax) (with Aβ)” value was found to be 560 ± 10 nm, the “Ex (λmax) (with Aβ)” value was 421 ± 4 nm, the “Fold Increase with Aβ” value turned out to be 2.1 ± 0.7 fold and the “Emmax (with Aβ)” value stood at 560 nm. For the same compound, the “FI with Aβ” value in series [4] was found to be 2.1 ± 0.7. Moreover, the “Fold Increase with Aβ” value in series [4] (listed as ARCAM (1)) is 2.1 fold. Also, at aggregated αS [5], the Kd is 3.9 ± 3.9 µM.
Regarding `COCCOCCOCCNC(=O)/C(C#N)=C/c1ccc2cc(N3CCCCC3C)ccc2c1` (racemic) [Compound 4, (E)-2-cyano-N-(2-(2-(2-methoxyethoxy)ethoxy)ethyl)-3-(6-(2-methylpiperidin-1-yl)naphthalen-2-yl)acrylamide], at aggregated αS [1], the “Emmax (with αS)” value is 531 nm, the “FI with αS” value is given as 3.8 ± 0.4 and the “FI αS/Aβ” value is reported as 2.0. The Kd in series [2] is 4.4 ± 2.3 µM. Further, in series [3], the “Em (λmax) (Free)” value is 583 ± 1 nm, the “Ex (λmax) (Free)” value turned out to be 431 ± 4 nm, the “fluorescence intensity of the free probe in aqueous solution compared to ARCAM (1)” value is “lower but similar in magnitude to ARCAM (1)” and the “Emmax (Free)” value turned out to be 583 nm. For the same compound, in series [4], the “Em (λmax) (with Aβ)” value is 559 ± 8 nm; the “Ex (λmax) (with Aβ)” value came to 439 ± 3 nm; the “Fold Increase with Aβ” value is 1.9 fold and 1.9 ± 0.5 fold; the “Emmax (with Aβ)” value was found to be 559 nm. Further, in series [4], the “FI with Aβ” value amounted to 1.9 ± 0.5. At aggregated αS [5], the Kd was 4.5 ± 1.6 µM.
As for `CCC1CCCCN1c1ccc2cc(/C=C(\C#N)C(=O)NCCOCCOCCOC)ccc2c1` (racemic) [Compound 5, (E)-2-cyano-3-(6-(2-ethylpiperidin-1-yl)naphthalen-2-yl)-N-(2-(2-(2-methoxyethoxy)ethoxy)ethyl)acrylamide], on aggregated αS [1], the “Emmax (with αS)” value is reported as 534 nm, the “FI with αS” value worked out at 4.6 ± 0.7 and the “FI αS/Aβ” value was determined as 3.8. In addition, the Kd in series [2] is 3.2 ± 0.6 µM. In addition, in series [3], the “Em (λmax) (Free)” value came to 575 ± 6 nm, the “Ex (λmax) (Free)” value was 445 ± 1 nm, the “fluorescence intensity of the free probe in aqueous solution compared to ARCAM (1)” value was “lower but similar in magnitude to ARCAM (1)” and the “Emmax (Free)” value is on record as 575 nm. Also, in series [4], the “Em (λmax) (with Aβ)” value was 567 ± 5 nm; the “Ex (λmax) (with Aβ)” value is listed as 443 ± 5 nm; the “Fold Increase with Aβ” value is 1.2 fold and 1.2 ± 0.1 fold; the “Emmax (with Aβ)” value was 567 nm. For the same compound, in series [4], the “FI with Aβ” value was 1.2 ± 0.1. Besides, at aggregated αS [5], the Kd was 5.8 ± 1.8 µM.
